# Results from patent publication US8304258B2, “Methods of producing monoclonal antibodies specific for human hepcidin” (DRG International, Inc., priority 2002, dated 2012).
# How the values were obtained:
# [1] = system: hepcidin expression in RINm5F cells; experiment: Hepcidin expression in RINm5F cells by quantitative RT-PCR after stimulation; format: cell-based, rat
# Protocol: (§1) RINM5F cells were grown in RPMI1640 media (PAA, Austria) containing L-glutamine, supplemented with 10% (vol/vol) heat inactivated fetal calf serum, penicillin (100 units/ml) and streptomycin (100 μg/mL). Cells were cultivated at 37° C. in 5% CO2. Cells were incubated with increasing concentrations of FENTA from 1 μM up to 65 μM for 72 hours and with 100 mM glucose (Merck, Darstadt, Germany) for up to 8 hours. After stimulation experiments, total rna or proteins were extracted from RINM5F cells and analyzed by quantitative PCR and immunoblot assays.
# The regulation of hepcidin expression in RINm5F cells was analyzed upon exposure to iron, since iron regulates hepcidin expression in the liver. The regulatory effect of iron on hepcidin gene expression was measured in these cells under various FENTA concentrations using quantitative RT-PCR as described, for example, in Gehrke et al., Blood 102: 371-376 (2003). A 2-step reverse transcriptase-polymerase chain reaction (RT-PCR) was performed using the Lightcycler system and relative quantification software version 1.0 (ROCHE Molecular Biochemicals; Mannheim, Germany). […] In a second step, transcripts of hepcidin were amplified in duplicates with specific sense and antisense primers. all transcripts were detected using SYBR GREEN I according to manufacturer's instructions and were normalized to β-actin as internal control.
# RINm5F cells = experiment: Neutral red cytotoxicity assay in RINm5F cells; format: cell-based, rat; settings: FeNTA concentrations used, 3 days after iron stimulation
# Protocol: (A): Hepcidin expression in RINm5F cells after iron (FeNTA) stimulation using quantitative RT-PCR (n=5) (1 μM FeNTA: P<0.01; 3 μM: P<0.001; 10 μM: P<0.002; 65 μM: P<0.05). (B): Cytotoxicity of FeNTA in RINm5F cells measured by neutral red assay 3 days after iron stimulation. […] (C): Immunoblot analysis of iron stimulated RINm5F cells showing hepcidin immunoreactivity at the range of 10 kDa. […] The second immunoreactive band at 20 kDa may reflect a dimeric type of hepcidin.
# (§2) In these experiments, protein extracts were incubated for 7 min at 94° C. in sample buffer with 4% (wt/vol) SDS (Merck, Darmstadt, Germany), 50 mM TRIS-HCl (PH 8.45), 1 mM EDTA, 3.24 mM dithiothreitol (ROTH, Karlsruhe, Germany), 12.5% (wt/vol) glycerol (Merck, Darmstadt, Germany), and 0.002% Bromophenol blue (Merck, Darmstadt, Germany). To detect hepcidin, a 16.5% Tricine-SDS-polyacrylamide gel was used.
# [2] = system: hepcidin protein in RINm5F cells; experiment: Immunoblot analysis of hepcidin in stimulated RINm5F cells; format: cell-based, rat
# Protocol: as §1, §2
# [3] = target: T1, Ferroportin-GFP (Fpn-GFP) (Mus musculus, UniProt Q9JHI9); experiment: Fpn-GFP internalization in HEK293-Fpn cells, epi-fluorescence microscopy; format: cell-based
# T1 construct: expressed in transfected cells; host or cells: EcR293 cells (resulting HEK293-Fpn cells), induced with ponasterone for 24 h
# T1 sequence (Q9JHI9 1-570): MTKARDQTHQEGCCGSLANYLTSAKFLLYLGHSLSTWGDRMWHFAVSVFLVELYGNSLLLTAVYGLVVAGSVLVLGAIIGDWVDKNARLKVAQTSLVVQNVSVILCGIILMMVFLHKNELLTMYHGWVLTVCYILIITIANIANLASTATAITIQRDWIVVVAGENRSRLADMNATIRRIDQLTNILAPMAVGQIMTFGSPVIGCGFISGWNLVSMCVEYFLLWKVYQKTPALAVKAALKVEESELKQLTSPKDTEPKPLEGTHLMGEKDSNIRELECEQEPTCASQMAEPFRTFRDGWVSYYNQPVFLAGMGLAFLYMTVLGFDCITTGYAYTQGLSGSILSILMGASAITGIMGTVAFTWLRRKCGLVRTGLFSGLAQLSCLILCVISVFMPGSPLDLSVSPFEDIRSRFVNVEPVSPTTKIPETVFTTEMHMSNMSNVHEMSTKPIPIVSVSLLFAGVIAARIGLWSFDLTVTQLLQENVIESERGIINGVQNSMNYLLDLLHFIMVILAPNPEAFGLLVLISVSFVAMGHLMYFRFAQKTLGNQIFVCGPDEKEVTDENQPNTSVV
# Description: In one embodiment, the antibodies of the instant invention (e.g., the antibodies capable of binding SEQ ID NO:2, SEQ ID NO:3, SEQ ID NO:4, SEQ ID NO:5) may be used to inactivate hepcidin. In one embodiment, EcR293 cells were stably transfected with a plasmid containing an ecdysone-regulated Ferroportin-GFP (Fpn-GFP) construct (Nemeth et al. Science 306:2090-2093, (2004)). In resulting HEK293-Fpn cells bioactive hepcidin binds to ferroportin and specifically induces the internalization of Fpn-GFP. Briefly, Fpn-GFP was induced by ponasterone treatment for 24 h. Cells were then incubated with 0.1 to 0.5 μM purified human hepcidin (from urine) for 6 h and imaged by epi-fluorescence microscopy. […] When hepcidin was absent from the medium, there was no internalization of Fpn-GFP.
# cR293 cells were stably transfected with a plasmid containing an ecdysone-regulated Ferroportin-GFP (Fpn-GFP) construct. In resulting HEK293-Fpn cells bioactive hepcidin binds to ferroportin and specifically induces the internalization of Fpn-GFP. Briefly, Fpn-GFP was induced by ponasterone treatment for 24 h. Cells were then incubated with 0.1 to 0.5 μM purified human hepcidin (from urine) for 6 h and imaged by epi-fluorescence microscopy.
molecule,measurement,setting,value
"O=C([O-])CN(CC(=O)[O-])CC(=O)[O-].[Fe+3] [FeNTA, Iron Nitrilotriacetate]",hepcidin-mRNA regulation,"[1]; FeNTA 1 μM up to 10 μM, 72 hours",significant up-regulation of hepcidin-mRNA up to three-fold
same,hepcidin expression,[1]; FeNTA 65 μM or higher,down-regulated
same,cytotoxicity in neutral red assay,RINm5F cells,no cytotoxicity exists under the iron concentrations used
same,cytotoxicity in neutral red assay,RINm5F cells; listed as FENTA,not cytotoxic
same,hepcidin immunoreactivity at 10 kDa compared to control,[2]; 3 μM FeNTA,up-regulation of hepcidin
same,hepcidin immunoreactivity at 10 kDa compared to control,[2]; 65 μM FeNTA,down-regulation
Chemically synthesized hepcidin: hepcidin synthesized chemically,efficiency in inducing Fpn-GFP internalization compared with hepcidin purified from urine,[3]; same experiments as with urine hepcidin,as efficient in inducing Fpn-GFP internalization as hepcidin purified from urine
"hepcidin: purified human hepcidin (from urine), bioactive peptide hormone binding ferroportin",time to Fpn internalization,[3]; 0.1 μM hepcidin,≤ 1 h
same,distribution of Fpn-GFP after addition of hepcidin,"[3]; 0.1 to 0.5 μM purified human hepcidin (from urine), 6 h",changed the distribution of Fpn-GFP from the cell surface to punctuate intracellular vesicles
same,concentration of hepcidin that induced Fpn internalization,"[3]; HEK293-Fpn cells, within 1 h",≤ 0.1 µM
